Values quoted from earlier work in patent US20050119246A1, “1H-pyrazolyl derivative compounds, for use in diseases associated with the 5-ht2c receptor” (Bayer Pharmaceuticals Corporation, priority 2001, published 2005).

How the values were obtained:
5-HT2C receptor = molecular target: T1, 5-HT2C receptor (Homo sapiens, UniProt P28335); settings: background statement; comparator receptors not named
T1 sequence (P28335 33-458): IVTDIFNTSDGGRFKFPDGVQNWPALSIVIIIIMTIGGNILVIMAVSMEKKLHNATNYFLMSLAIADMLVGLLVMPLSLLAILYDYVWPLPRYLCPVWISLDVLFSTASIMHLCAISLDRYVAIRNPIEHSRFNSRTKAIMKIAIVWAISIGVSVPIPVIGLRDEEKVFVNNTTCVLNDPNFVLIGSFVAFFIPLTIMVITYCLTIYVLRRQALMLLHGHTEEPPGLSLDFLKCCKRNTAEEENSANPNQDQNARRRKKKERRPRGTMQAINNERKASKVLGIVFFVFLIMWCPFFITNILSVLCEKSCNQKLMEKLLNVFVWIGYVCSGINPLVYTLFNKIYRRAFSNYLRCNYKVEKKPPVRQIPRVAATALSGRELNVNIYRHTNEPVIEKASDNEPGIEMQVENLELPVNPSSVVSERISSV

5-HT2 receptors = settings: background statement

Row | SMILES | selectivity of 5-HT2C receptor antagonist (5-HT2C receptor) | pKi for the 5-HT2 receptors (5-HT2 receptors) | selectivity for the 5-HT2 receptors over 5-HT1 receptors (5-HT2 receptors)
1 | Cc1cc2c(cc1Cl)N(C(=O)Nc1ccc(Oc3cccnc3C)nc1)CC2 [SB-242084] | at least 100 fold | – | –
2 | Cc1nc2sccn2c(=O)c1CCN1CCC(=C(c2ccc(F)cc2)c2ccc(F)cc2)CC1 [ritanserin] | – | 8.9 | 10,000 fold
